Data reported in patent US20100004238A1, “FUSED HETEROCYCLIC COMPOUND” (TAKEDA PHARMACEUTICAL COMPANY LIMITED, priority 2006, published 2010).
Structures can show the parent of a compound that is named as a salt.

What was measured:
[1] = molecular target: T1, HER2 intracellular domain (HER2 kinase) (Homo sapiens, UniProt P04626); experiment: Determination of HER2 kinase inhibitory activity; assay type: biochemical; conditions: compound at 1.0 μM, poly-Glu:Tyr (4:1) substrate, [γ-32P]ATP, read-out: inhibitory rate (%) at 1.0 μM
T1 construct: made in house; host or cells: SF-21 insect cells infected with recombinant baculovirus BAC-HER2
Procedure: Human HER2 gene was cloned by RT-PCR using total RNA prepared from MCF7 cells as a template. The primer used for RT-PCR was prepared in consideration of the information of nucleotide sequence (Genbank Accession No. M11730) of HER2 gene by adding a nucleotide sequence encoding DYKDDDD peptide and a restriction enzyme recognition sequence to a nucleotide sequence (corresponding to 2176-3918 of Genbank Accession No. M11730 as a base, 676-1255 amino acids of Genbank Accession No. NP_004439 as a protein) encoding the HER2 intracellular domain region such that the protein contains an N-terminal DYKDDDD peptide tag. The primer nucleotide sequence is shown below.
SF-21 cells were sown at 1×10^6 cells/mL in Sf-900II SFM medium (1 L, Invitrogen) containing 10% fetal bovine serum (trace), 50 mg/L gentamicin (Invitrogen) and 0.1% Pluronic F-68 (Invitrogen), and shaking culture was performed using a 2 L volume Erlenmeyer flask at 27° C., 100 rpm. After culturing for 24 hr, recombinant baculovirus BAC-HER2 (13.4 mL) was added, and the mixture was further cultured for 3 days. The culture medium was centrifuged at 2,000 rpm for 5 min to give virus-infected cells. The infected cells were washed with a phosphate buffered saline (Invitrogen), centrifuged under the same conditions, and the cells were preserved at −80° C. The cryopreserved cells were thawed in ice, suspended in buffer A (50 mM Tris buffer (30 mL, pH 7.4) containing 20% glycerol, 0.15 M NaCl) supplemented with Complete Protease Inhibitor (Boehringer), and ruptured 3 times with a Polytron homogenizer (Kinematica) at 20,000 rpm for 30 sec. The ruptured solution was clarified by centrifugation at 40,000 rpm for 30 min, and filtered with a 0.45 μm filter. The filtrate was passed through a column packed with Anti-FLAG M2 Affinity Gel (4 mL, Sigma-Aldrich) at a flow rate of about 0.5 mL/min. The column was washed with buffer A, and eluted with buffer A containing 100 μg/mL of FLAG peptide. The eluent was concentrated with Vivaspin 20 (Vivascience) having a molecular weight cut off of 30K. The concentrate was purified by gel filtration using Hi Load 16/60 Superdex 200 pg (GE Healthcare Bioscience) equilibrated with buffer A. The fractions containing HER2 intracellular domain were collected and cryopreserved at −80° C.
HER2 kinase reaction was performed using a 96 well plate. As a buffer for kinase reaction, a buffer having a composition of 50 mM Tris-HCl (pH 7.5), 5 mM MnCl2, 2 mM dithiothreitol, 0.01% Tween-20 was used. The compound of the present invention was dissolved in dimethyl sulfoxide (DMSO), and diluted with the kinase reaction buffer so that DMSO concentration would be 0.1% during kinase reaction. This compound solution (10 μL) was mixed with a kinase reaction buffer […] containing HER2 intracellular domain (0.625 μg/mL) obtained in Experimental Example 1B and polypeptide substrate poly-Glu:Tyr (4:1) (Sigma Ltd., 12.5 μg/mL), and the mixture was stood at room temperature for 5 min. Then, a kinase reaction buffer (20 μL) containing 125 μM ATP and 45 μCi/mL [γ-^32P]ATP was added, and the kinase reaction was initiated with 50 μL of the final reaction mixture. A kinase reaction was performed at room temperature for 10 min, and the kinase reaction was quenched by addition of 20% TCA solution (50 μL). The mixture after completion of the reaction was stood at room temperature for 30 min, and acid insoluble fractions in the mixture after completion of the reaction were collected in a 96 well GF/C filter plate (PerkinElmer) using a cell harvester (PerkinElmer). Thereafter, the filter containing the acid insoluble fractions was washed with 3% phosphoric acid solution. After washing, the filter plate was dried at 45° C. for 60 min, and 25 μL of MicroScinti 0 (PerkinElmer) was added. The radioactivity was measured using TopCount (PerkinElmer). HER2 kinase inhibitory rate (%) of the test compound was calculated by the following formula: […]

[2] = test system: human breast cancer cell BT-474; experiment: Inhibitory action on breast cancer cell BT-474 proliferation in vitro; assay type: cell-based; conditions: 120 h, BT-474 cells, cultured for 5 days with compound, SRB protein content
Procedure: A suspension of human breast cancer cell BT-474 (100 μl (6,000 cells)) were plated in a 96-well microplate and cultured in an incubator (37° C., 5% carbon dioxide). On the following day, 100 μl of a solution of each test compound previously diluted serially in 2-fold, was added, and the cells were cultured for 5 days. After the culture medium containing the test compound was removed, the cells were washed and fixed with 50% trichloroacetic acid, after which a 0.4% (w/v) SRB dye solution (dissolved in 1% acetic acid) was added to stain as well as fix the cell protein (Skehan et al., Journal of the National Cancer Institute, Vol. 82, pp. 1107-1112, 1990). After washing with a 1% acetic acid solution, 100 μl of extract solution (10 mM, Tris buffer) was added to extract the dye and the absorbance was measured at a wavelength of 550 nm to quantify the amount of cells as protein content. Taking as 100% the protein content for the control group, which received no test compound solution, the ratio of the residual protein content for each treatment group was determined, and the compound concentration required to achieve 50% suppression of the residual cell content relative to the control (IC50 value) was calculated.

T1 sequence (P04626 676-1255): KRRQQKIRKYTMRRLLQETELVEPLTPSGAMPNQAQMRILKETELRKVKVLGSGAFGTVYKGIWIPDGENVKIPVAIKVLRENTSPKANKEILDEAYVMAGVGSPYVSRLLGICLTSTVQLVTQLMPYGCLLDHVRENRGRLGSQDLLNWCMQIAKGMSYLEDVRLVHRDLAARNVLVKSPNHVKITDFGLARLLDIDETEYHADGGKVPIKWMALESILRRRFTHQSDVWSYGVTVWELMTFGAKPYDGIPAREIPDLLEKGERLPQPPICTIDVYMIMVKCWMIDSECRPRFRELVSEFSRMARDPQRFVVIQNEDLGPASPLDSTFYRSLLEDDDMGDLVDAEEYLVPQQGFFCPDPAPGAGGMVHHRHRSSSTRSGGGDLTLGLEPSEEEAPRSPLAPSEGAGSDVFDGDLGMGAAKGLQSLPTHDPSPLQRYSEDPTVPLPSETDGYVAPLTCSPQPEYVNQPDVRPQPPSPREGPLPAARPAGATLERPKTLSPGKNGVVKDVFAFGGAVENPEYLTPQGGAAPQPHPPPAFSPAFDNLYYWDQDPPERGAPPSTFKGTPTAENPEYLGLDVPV

SMILES | inhibition at 1 µM [1] [%] | IC50 [2] [nM]
OCCn1ccc2ncnc(Nc3ccc(Oc4cccc5sccc45)c(Cl)c3)c21 [Example 83, 2-(4-{[4-(1-benzothiophen-4-yloxy)-3-chlorophenyl]amino}-5H-pyrrolo[3,2-d]pyrimidin-5-yl)ethanol] | 99 | –
CC(C)(C)NC(=O)c1cncc(Oc2ccc(Nc3ncnc4ccn(CCO)c34)cc2Cl)c1 [Example 26, N-(tert-butyl)-5-(2-chloro-4-{[5-(2-hydroxyethyl)-5H-pyrrolo[3,2-d]pyrimidin-4-yl]amino}phenoxy)nicotinamide] | 100 | < 100
CC(C)(CO)C(=O)NCCn1ccc2ncnc(Nc3ccc(Oc4ccn5ccnc5c4)c(Cl)c3)c21 [Example 164, N-[2-(4-{[3-chloro-4-(imidazo[1,2-a]pyridin-7-yloxy)phenyl]amino}-5H-pyrrolo[3,2-d]pyrimidin-5-yl)ethyl]-3-hydroxy-2,2-dimethylpropanamide] | 100 | –
CC(C)(C)NC(=O)c1cccc(Oc2ccc(Nc3ncnc4ccn(CCO)c34)cc2Cl)n1 [Example 29, N-(tert-butyl)-6-(2-chloro-4-{[5-(2-hydroxyethyl)-5H-pyrrolo[3,2-d]pyrimidin-4-yl]amino}phenoxy)pyridine-2-carboxamide] | 100 | –
Cn1ccc2ncnc(Nc3ccc(Oc4cccc5[nH]ncc45)c(Cl)c3)c21 [Example 86, N-[3-chloro-4-(1H-indazol-4-yloxy)phenyl]-5-methyl-5H-pyrrolo[3,2-d]pyrimidin-4-amine] | – | < 100
OCCn1ccc2ncnc(Nc3ccc(Oc4cccc5[nH]ncc45)c(Cl)c3)c21 [Example 95, 2-(4-{[3-chloro-4-(1H-indazol-4-yloxy)phenyl]amino}-5H-pyrrolo[3,2-d]pyrimidin-5-yl)ethanol] | 100 | < 100
CN1C(=O)Cc2c(Oc3ccc(Nc4ncnc5cc(Cl)n(CCO)c45)cc3Cl)cccc21 [Example 170, 4-(2-chloro-4-{[6-chloro-5-(2-hydroxyethyl)-5H-pyrrolo[3,2-d]pyrimidin-4-yl]amino}phenoxy)-1-methyl-1,3-dihydro-2H-indol-2-one] | 97 | –
CC(C)(CO)C(=O)NCCn1ccc2ncnc(Nc3ccc(Oc4cccc5sccc45)c(Cl)c3)c21 [Example 127, N-[2-(4-{[4-(1-benzothiophen-4-yloxy)-3-chlorophenyl]amino}-5H-pyrrolo[3,2-d]pyrimidin-5-yl)ethyl]-3-hydroxy-2,2-dimethylpropanamide tosylate] | 99 | –
CC(C)(CO)C(=O)NCCn1ccc2ncnc(Nc3ccc(Oc4ccc5ccnn5c4)c(Cl)c3)c21 [Example 159, N-[2-(4-{[3-chloro-4-(pyrazolo[1,5-a]pyridin-6-yloxy)phenyl]amino}-5H-pyrrolo[3,2-d]pyrimidin-5-yl)ethyl]-3-hydroxy-2,2-dimethylpropanamide methanesulfonate] | 100 | –
OCCn1ccc2ncnc(Nc3ccc(Oc4cccc5[nH]ccc45)c(Cl)c3)c21 [Example 10, 2-(4-{[3-chloro-4-(1H-indol-4-yloxy)phenyl]amino}-5H-pyrrolo[3,2-d]pyrimidin-5-yl)ethanol] | 99 | < 100
CC(C)(CO)C(=O)NCCn1ccc2ncnc(Nc3ccc(Oc4ccn5ncnc5c4)c(Cl)c3)c21 [Example 166, N-[2-(4-{[3-chloro-4-([1,2,4]triazolo[1,5-a]pyridin-7-yloxy)phenyl]amino}-5H-pyrrolo[3,2-d]pyrimidin-5-yl)ethyl]-3-hydroxy-2,2-dimethylpropanamide] | – | < 100
CC(C)(O)CC(=O)NCCn1ccc2ncnc(Nc3ccc(Oc4ccc5ccnn5c4)c(Cl)c3)c21 [Example 147, N-[2-(4-{[3-chloro-4-(pyrazolo[1,5-a]pyridin-6-yloxy)phenyl]amino}-5H-pyrrolo[3,2-d]pyrimidin-5-yl)ethyl]-3-hydroxy-3-methylbutanamide hydrochloride] | – | < 100
CC(C)(CO)C(=O)NCCn1ccc2ncnc(Nc3ccc(Oc4cccc5sccc45)c(Cl)c3)c21 [Example 114, N-[2-(4-{[4-(1-benzothiophen-4-yloxy)-3-chlorophenyl]amino}-5H-pyrrolo[3,2-d]pyrimidin-5-yl)ethyl]-3-hydroxy-2,2-dimethylpropanamide] | – | < 100
O=C1Cc2c(cccc2Oc2ccc(Nc3ncnc4ccn(CCO)c34)cc2Cl)N1 [Example 28, 4-(2-chloro-4-{[5-(2-hydroxyethyl)-5H-pyrrolo[3,2-d]pyrimidin-4-yl]amino}phenoxy)-1,3-dihydro-2H-indol-2-one] | 100 | < 100
